“And” between values parts separate entries of the source, which are not always exact repeats. Equal entries are not always repeated.
System: human pancreatic cancer Capan-1 subcutaneous xenograft model
Assay: In-depth efficacy in olaparib-resistant pancreatic cancer Capan-1 CDX model (3.2)
Format: in vivo, mouse
Conditions: for CR Rate: complete response, animals/group
Method: Protocol: Nude BALB/c mice were subcutaneously inoculated with human pancreatic cancer Capan-1 cells, establishing a human pancreatic cancer subcutaneous xenograft model. The mice were divided into 7 groups, 6 in each group: 100 mg/kg of the test drug olaparib as a monotherapy (Group 2); 50 mg/kg of TH-302 as a monotherapy (Group 3, QD); 100 mg/kg of TH-302 as a monotherapy (Group 4); 50 mg/kg of TH-302 as a monotherapy (Group 5, QW); 25 mg/kg of TH-302 as a monotherapy (Group 6); 25 mg/kg TH-302 in combination therapy with 100 mg/kg olaparib (Group 7); and 10% anhydrous ethanol+10% polyoxyethylene (35) castor oil+80% glucose injection solution D5W (pH 7.4) as a vehicle control (Group 1). The vehicle control group and the TH-302 test groups were all administered through tail vein injection. The 50 mg/kg TH-302 monotherapy group (Group 3, QD) was administered once daily for 3 consecutive days. After rest for 4 days and two weeks, the mice were again administered daily for another 3 consecutive days. TH-302 in all the 100 mg/kg (Group 4, QW), 50 mg/kg (Group 5, QW) and 25 mg/kg (Group 6, QW) TH-302 monotherapy groups and 25 mg/kg TH-302+100 mg/kg olaparib combination therapy group (Group 7) was administered once weekly for a total of three weeks. The test drug olaparib in all the groups was orally and intragastrically administered once daily for totally 30 days. Routes of administration, doses and regimens for the human pancreatic cancer Capan-1 animal model are specifically summarized in Table 12.
Tumor growth of the treatment and control groups on different days in the experiment were recorded and shown in Table 13, and corresponding tumor volume growth curves of the mice in respective groups are shown in FIG. 7. Efficacy evaluation was conducted based on relative tumor proliferation rates and relative tumor growth inhibition rates, and the results of efficacy analysis are summarized in Table 14. Body weight changes of the treatment and control groups after administration were recorded to investigate safety of the groups in the human pancreatic cancer Capan-1 subcutaneous model. Body weight change rates of the mice on Day 43 are shown in Table 15, and curves showing body weights of the treatment groups over time are plotted in FIG. 8.
A relative tumor proliferation rate, denoted as T/C %, is calculated as a relative tumor volume or a tumor weight of a treatment group as a percentage of that of the control group at a certain point of time according to:
T/C %=TRTV/CRTV×100% (where TRTV denotes average RTV of the treatment group; CRTV represents average RTV of the vehicle control group; and RTV=Vt/V0, where V0 is a tumor volume of an animal at the time of randomization, and Vt is a tumor volume of the animal after treatment); or
T/C %=TTW/CTW×100% (where TTW is an average tumor weight of the treatment group at the end of the experiment, and CTW is an average tumor weight of the vehicle control group at the end of the experiment).
A relative tumor growth inhibition rate, denoted as TGI (%), is calculated according to: TGI %=(1−T/C)×100% (where T and C are relative tumor volumes (RTV) or tumor weights (TW) of a treatment group and the control group, respectively, at a particular point of time).

[1] = Group 3: 50 mg/kg i.v. QD, Day 43
[2] = Group 4: 100 mg/kg i.v. QW×3, Day 43
[3] = Group 5: 50 mg/kg i.v. QW×3, Day 43
[4] = Group 6: 25 mg/kg i.v. QW×3, Day 43
[5] = Group 2: 100 mg/kg p.o. QD×30, Day 43

Cn1c(COP(=O)(NCCBr)NCCBr)cnc1[N+](=O)[O-] [TH-302, evofosfamide]
Tumor volume (Group 3: 50 mg/kg i.v. QD, Day 9): 194.10 mm^3 | Tumor volume (Group 3: 50 mg/kg i.v. QD, Day 13): 138.02 mm^3 | Tumor volume (Group 3: 50 mg/kg i.v. QD, Day 16): 124.61 mm^3 | Tumor volume (Group 3: 50 mg/kg i.v. QD, Day 20): 105.24 mm^3 | Tumor volume (Group 3: 50 mg/kg i.v. QD, Day 23): 107.93 mm^3 | Tumor volume (Group 3: 50 mg/kg i.v. QD, Day 27): 110.53 mm^3 | Tumor volume (Group 3: 50 mg/kg i.v. QD, Day 30): 123.45 mm^3 | Tumor volume (Group 3: 50 mg/kg i.v. QD, Day 34): 101.47 mm^3 | Tumor volume (Group 3: 50 mg/kg i.v. QD, Day 37): 114.69 mm^3 | Tumor volume (Group 3: 50 mg/kg i.v. QD, Day 41): 134.32 mm^3 | Relative Tumor Volume (x ± S) [1]: 0.99 ± 0.22 | T/C (%) [1]: 10.83% | TGI (%) [1]: 89.17% | Tumor volume (Group 3: 50 mg/kg i.v. QD, Day 43, 50 mg/kg): 146.99 mm^3 and 146.99 ± 37.96 mm^3 | CR Rate [1]: 0/6 | Tumor volume (Group 3: 50 mg/kg i.v. QD×3, 4 days off, 2 weeks off, QD×3, Day 6): 146.76 mm^3 | Tumor volume (Group 4: 100 mg/kg i.v. QW×3, Day 6): 146.05 mm^3 | Tumor volume (Group 4: 100 mg/kg i.v. QW×3, Day 9): 193.80 mm^3 | Tumor volume (Group 4: 100 mg/kg i.v. QW×3, Day 13): 123.87 mm^3 | Tumor volume (Group 4: 100 mg/kg i.v. QW×3, Day 16): 112.22 mm^3 | Tumor volume (Group 4: 100 mg/kg i.v. QW×3, Day 20): 85.08 mm^3 | Tumor volume (Group 4: 100 mg/kg i.v. QW×3, Day 23): 59.95 mm^3 | Tumor volume (Group 4: 100 mg/kg i.v. QW×3, Day 27): 49.03 mm^3 | Tumor volume (Group 4: 100 mg/kg i.v. QW×3, Day 30): 48.35 mm^3 | Tumor volume (Group 4: 100 mg/kg i.v. QW×3, Day 34): 65.87 mm^3 | Tumor volume (Group 4: 100 mg/kg i.v. QW×3, Day 37): 75.54 mm^3 | Tumor volume (Group 4: 100 mg/kg i.v. QW×3, Day 41): 106.10 mm^3 | Relative Tumor Volume (x ± S) [2]: 0.83 ± 0.17 | T/C (%) [2]: 9.11% | TGI (%) [2]: 90.89% | Tumor volume (Group 4: 100 mg/kg i.v. QW×3, Day 43, 100 mg/kg): 124.68 mm^3 and 124.68 ± 31.35 mm^3 | CR Rate [2]: 0/6 | Tumor volume (Group 5: 50 mg/kg i.v. QW×3, Day 6): 147.11 mm^3 | Tumor volume (Group 5: 50 mg/kg i.v. QW×3, Day 9): 182.60 mm^3 | Tumor volume (Group 5: 50 mg/kg i.v. QW×3, Day 13): 178.72 mm^3 | Tumor volume (Group 5: 50 mg/kg i.v. QW×3, Day 16): 181.66 mm^3 | Tumor volume (Group 5: 50 mg/kg i.v. QW×3, Day 20): 181.56 mm^3 | Tumor volume (Group 5: 50 mg/kg i.v. QW×3, Day 23): 156.49 mm^3 | Tumor volume (Group 5: 50 mg/kg i.v. QW×3, Day 27): 152.57 mm^3 | Tumor volume (Group 5: 50 mg/kg i.v. QW×3, Day 30): 152.13 mm^3 | Tumor volume (Group 5: 50 mg/kg i.v. QW×3, Day 34): 176.07 mm^3 | Tumor volume (Group 5: 50 mg/kg i.v. QW×3, Day 37): 198.42 mm^3 | Tumor volume (Group 5: 50 mg/kg i.v. QW×3, Day 41): 221.92 mm^3 | Complete tumor inhibition rate [3]: 33.3% | Relative Tumor Volume (x ± S) [3]: 1.81 ± 0.64 | T/C (%) [3]: 19.82% | TGI (%) [3]: 80.18% | Tumor volume (Group 5: 50 mg/kg i.v. QW×3, Day 43, 50 mg/kg): 263.45 mm^3 and 263.45 ± 86.54 mm^3 | CR Rate [3]: 2/6 | Tumor volume (Group 6: 25 mg/kg i.v. QW×3, Day 6): 146.81 mm^3 | Tumor volume (Group 6: 25 mg/kg i.v. QW×3, Day 9): 213.60 mm^3 | Tumor volume (Group 6: 25 mg/kg i.v. QW×3, Day 13): 233.94 mm^3 | Tumor volume (Group 6: 25 mg/kg i.v. QW×3, Day 16): 277.57 mm^3 | Tumor volume (Group 6: 25 mg/kg i.v. QW×3, Day 20): 295.46 mm^3 | Tumor volume (Group 6: 25 mg/kg i.v. QW×3, Day 23): 328.33 mm^3 | Tumor volume (Group 6: 25 mg/kg i.v. QW×3, Day 27): 373.13 mm^3 | Tumor volume (Group 6: 25 mg/kg i.v. QW×3, Day 30): 454.44 mm^3 | Tumor volume (Group 6: 25 mg/kg i.v. QW×3, Day 34): 705.45 mm^3 | Tumor volume (Group 6: 25 mg/kg i.v. QW×3, Day 37): 886.42 mm^3 | Tumor volume (Group 6: 25 mg/kg i.v. QW×3, Day 41): 1344.26 mm^3 | Relative Tumor Volume (x ± S) [4]: 11.12 ± 3.31 | T/C (%) [4]: 121.59% | TGI (%) [4]: −21.59% | Tumor volume (Group 6: 25 mg/kg i.v. QW×3, Day 43, 25 mg/kg): 1521.33 mm^3 and 1521.33 ± 349.46 mm^3 | CR Rate [4]: 0/6

O=C(c1cc(Cc2n[nH]c(=O)c3ccccc23)ccc1F)N1CCN(C(=O)C2CC2)CC1 [olaparib]
Tumor volume (Group 2: 100 mg/kg p.o. QD×30, Day 6): 146.72 mm^3 | Tumor volume (Group 2: 100 mg/kg p.o. QD×30, Day 9): 223.17 mm^3 | Tumor volume (Group 2: 100 mg/kg p.o. QD×30, Day 13): 263.96 mm^3 | Tumor volume (Group 2: 100 mg/kg p.o. QD×30, Day 16): 314.03 mm^3 | Tumor volume (Group 2: 100 mg/kg p.o. QD×30, Day 20): 373.87 mm^3 | Tumor volume (Group 2: 100 mg/kg p.o. QD×30, Day 23): 419.26 mm^3 | Tumor volume (Group 2: 100 mg/kg p.o. QD×30, Day 27): 518.48 mm^3 | Tumor volume (Group 2: 100 mg/kg p.o. QD×30, Day 30): 550.33 mm^3 | Tumor volume (Group 2: 100 mg/kg p.o. QD×30, Day 34): 604.32 mm^3 | Tumor volume (Group 2: 100 mg/kg p.o. QD×30, Day 37): 725.18 mm^3 | Tumor volume (Group 2: 100 mg/kg p.o. QD×30, Day 41): 767.49 mm^3 | Relative Tumor Volume (x ± S) [5]: 5.72 ± 0.54 | T/C (%) [5]: 62.57% | TGI (%) [5]: 37.43% | Tumor volume (Group 2: 100 mg/kg p.o. QD×30, Day 43, 100 mg/kg): 846.86 mm^3 and 846.86 ± 128.85 mm^3 | CR Rate [5]: 0/6
